How the values were obtained:
tumor-bearing mice = experiment: Serum biochemical parameters (ALT, AST, creatinine, urea) of tumor-bearing mice treated with ART; type: in vivo, BALB/c mice; conditions: 7 days
Description: Mouse mammary 4T1 cells in passage numbers between 7 and 12 (10^4 cells/ml in 50 µl PBS) were injected into the inguinal 4th mammary fat pad of BALB/c mice ([23], [24]). Normal mice received an equal volume of sterile PBS. A palpable tumor was allowed to develop for 14 days ([24]). […] Normal (mammary fat pad surrounding the 4th inguinal mammary pad), mammary tumor, and organs like lungs, kidney, liver, and blood were collected at the end of the experimental schedule. Body weight and tumor volume of each mouse were recorded daily during the tenure of the experiment. Tumor volume was calculated using the following formula: length (mm) × width^2 (mm) × 0.52 ([25]). Levels of alanine aminotransferase (ALT) and aspartate aminotransferase (AST) from the serum were determined using ALT and AST estimation kits (Robonik India Pvt. Ltd, India). Briefly, for ALT activity estimation, Reagent 1 (Tris Buffer, L-Alanine, Lactate Dehydrogenase) and Reagent 2 (α-ketoglutarate, NADH) was mixed (4:1) with 100 µl serum. After 60 seconds incubation, absorbance was measured at 340 nm every minute for 180 seconds (ΔA/minute). Finally, the activity was estimated using the formula: Activity of the sample = (ΔA/minute x 1746). Analysis and final calculations were carried out according to the manufacturer’s protocol ([29]) For AST activity estimation, Reagent 1 (Tris Buffer, L-Aspartate, Lactate Dehydrogenase; >600U/L, Malate dehydrogenase; >600U/L) and Reagent 2 (α-ketoglutarate, NADH) was mixed together (4:1) with 100 µl serum. After incubation for 60 seconds, absorbance was measured at 340 nm per minute for 180 seconds (ΔA/minute). Finally, the activity was estimated using the formula: Activity of the sample = (ΔA/minute x 1746). Analysis and final calculations were carried out according to the manufacturer’s protocol ([30]). For estimation of creatinine level, picric acid (0.5 ml), buffer (0.5 ml) and sample (Test)/standard (S) (0.1 ml) were mixed and absorbance was measured at 520 nm for 30 seconds and 60 seconds. The rate of change of absorbance was determined for the standard (ΔS) and test (ΔT) samples. The levels were estimated using the formula: creatinine (mg/dl) = (ΔT)/(ΔS) x 2.0 ([31]). Urea levels were estimated using specific metabolite analysis kits. Buffer (1 ml), enzyme (0.1 ml), sample (test)/standard (0.1 ml) and chromogen reagent (0.2 ml) were mixed. Absorbance was measured at 570 nm after 5 minutes of incubation of test (Abs T) and standard (Abs S) samples. The levels were estimated using the formula: Urea (mg/dl) = (AbsT)/(AbsS) x 40. Analysis and calculations were carried out according to the manufacturer’s protocol ([32]).

normal mice = experiment: Serum biochemical parameters (ALT, AST, creatinine, urea) of normal mice treated with ART; type: in vivo, BALB/c mice
Description: Levels of alanine aminotransferase (ALT) and aspartate aminotransferase (AST) from the serum were determined using ALT and AST estimation kits (Robonik India Pvt. Ltd, India). Briefly, for ALT activity estimation, Reagent 1 (Tris Buffer, L-Alanine, Lactate Dehydrogenase) and Reagent 2 (α-ketoglutarate, NADH) was mixed (4:1) with 100 µl serum. After 60 seconds incubation, absorbance was measured at 340 nm every minute for 180 seconds (ΔA/minute). Finally, the activity was estimated using the formula: Activity of the sample = (ΔA/minute x 1746). Analysis and final calculations were carried out according to the manufacturer’s protocol ([29]) For AST activity estimation, Reagent 1 (Tris Buffer, L-Aspartate, Lactate Dehydrogenase; >600U/L, Malate dehydrogenase; >600U/L) and Reagent 2 (α-ketoglutarate, NADH) was mixed together (4:1) with 100 µl serum. After incubation for 60 seconds, absorbance was measured at 340 nm per minute for 180 seconds (ΔA/minute). Finally, the activity was estimated using the formula: Activity of the sample = (ΔA/minute x 1746). Analysis and final calculations were carried out according to the manufacturer’s protocol ([30]). For estimation of creatinine level, picric acid (0.5 ml), buffer (0.5 ml) and sample (Test)/standard (S) (0.1 ml) were mixed and absorbance was measured at 520 nm for 30 seconds and 60 seconds. The rate of change of absorbance was determined for the standard (ΔS) and test (ΔT) samples. The levels were estimated using the formula: creatinine (mg/dl) = (ΔT)/(ΔS) x 2.0 ([31]). Urea levels were estimated using specific metabolite analysis kits. Buffer (1 ml), enzyme (0.1 ml), sample (test)/standard (0.1 ml) and chromogen reagent (0.2 ml) were mixed. Absorbance was measured at 570 nm after 5 minutes of incubation of test (Abs T) and standard (Abs S) samples. The levels were estimated using the formula: Urea (mg/dl) = (AbsT)/(AbsS) x 40. Analysis and calculations were carried out according to the manufacturer’s protocol ([32]). […]

[1] = ART 6.25 mg/kg body wt, 3 weeks (21 days)
[2] = ART 12.5 mg/kg body wt, 3 weeks (21 days)
[3] = ART 25 mg/kg body wt, 3 weeks (21 days)
[4] = ART 50 mg/kg body wt, 3 weeks (21 days)

C[C@@H]1CC[C@H]2[C@@H](C)C(=O)O[C@@H]3O[C@@]4(C)CC[C@@H]1[C@]32OO4 [ART, Artemisinin]
ALT (tumor-bearing mice; ART 6.25 mg/kg body wt i.p.): 43.8 ± 1.8 U/l
AST (tumor-bearing mice; ART 6.25 mg/kg body wt i.p.): 38.6 ± 2.6 U/l
Creatinine (tumor-bearing mice; ART 6.25 mg/kg body wt i.p.): 1.21 ± 0.21 mg/dL
Urea (tumor-bearing mice; ART 6.25 mg/kg body wt i.p.): 44.5 ± 1.8 mg/dL
ALT (tumor-bearing mice; ART 12.5 mg/kg body wt i.p.): 41.3 ± 3.1 U/l
AST (tumor-bearing mice; ART 12.5 mg/kg body wt i.p.): 38.2 ± 2.4 U/l
Creatinine (tumor-bearing mice; ART 12.5 mg/kg body wt i.p.): 0.85 ± 0.18 mg/dL
Urea (tumor-bearing mice; ART 12.5 mg/kg body wt i.p.): 32.3 ± 0.5 mg/dL
ALT (tumor-bearing mice; ART 25 mg/kg body wt i.p.): 38.9 ± 2.9 U/l
AST (tumor-bearing mice; ART 25 mg/kg body wt i.p.): 33.2 ± 2.8 U/l
Creatinine (tumor-bearing mice; ART 25 mg/kg body wt i.p.): 0.71 ± 0.16 mg/dL
Urea (tumor-bearing mice; ART 25 mg/kg body wt i.p.): 32.2 ± 1.1 mg/dL
ALT (tumor-bearing mice; ART 50 mg/kg body wt i.p.): 36.6 ± 1.6 U/l
AST (tumor-bearing mice; ART 50 mg/kg body wt i.p.): 31.8 ± 2.9 U/l
Creatinine (tumor-bearing mice; ART 50 mg/kg body wt i.p.): 0.68 ± 0.11 mg/dL
Urea (tumor-bearing mice; ART 50 mg/kg body wt i.p.): 27.1 ± 1.4 mg/dL
ALT (normal mice; [1]): 28.1±2.6 U/l
AST (normal mice; [1]): 29.8±4.6 U/l
Creatinine (normal mice; [1]): 0.48 ± 0.21 mg/dL
Urea (normal mice; [1]): 31.6 ± 1.9 mg/dL
ALT (normal mice; ART 6.25 mg/kg body wt, 7 days): 23.7 ± 1.8 U/l
AST (normal mice; ART 6.25 mg/kg body wt, 7 days): 27.3 ± 0.8 U/l
Creatinine (normal mice; ART 6.25 mg/kg body wt, 7 days): 0.51 ± 0.09 mg/dL
Urea (normal mice; ART 6.25 mg/kg body wt, 7 days): 24.5 ± 1.2 mg/dL
ALT (normal mice; [2]): 29.3±3.1 U/l
AST (normal mice; [2]): 31.4±2.6 U/l
Creatinine (normal mice; [2]): 0.68 ± 0.12 mg/dL
Urea (normal mice; [2]): 28.7 ± 2.3 mg/dL
ALT (normal mice; ART 12.5 mg/kg body wt, 7 days): 26.6 ± 2.2 U/l
AST (normal mice; ART 12.5 mg/kg body wt, 7 days): 29.6 ± 1.3 U/l
Creatinine (normal mice; ART 12.5 mg/kg body wt, 7 days): 0.77 ± 0.13 mg/dL
Urea (normal mice; ART 12.5 mg/kg body wt, 7 days): 26.3 ± 1.6 mg/dL
ALT (normal mice; [3]): 29.5±2.1 U/l
AST (normal mice; [3]): 28.5±2.8 U/l
Creatinine (normal mice; [3]): 0.49 ± 0.3 mg/dL
Urea (normal mice; [3]): 30.1 ± 2.6 mg/dL
ALT (normal mice; ART 25 mg/kg body wt, 7 days): 30.7 ± 1.5 U/l
AST (normal mice; ART 25 mg/kg body wt, 7 days): 31.7 ± 3.1 U/l
Creatinine (normal mice; ART 25 mg/kg body wt, 7 days): 0.62 ± 0.07 mg/dL
Urea (normal mice; ART 25 mg/kg body wt, 7 days): 28.2 ± 0.8 mg/dL
ALT (normal mice; [4]): 28.8±3.2 U/l
AST (normal mice; [4]): 30.3±1.9 U/l
Creatinine (normal mice; [4]): 0.62 ± 0.38 mg/dL
Urea (normal mice; [4]): 28.9 ± 2.1 mg/dL
ALT (normal mice; ART 50 mg/kg body wt, 7 days): 26.4 ± 2.3 U/l
AST (normal mice; ART 50 mg/kg body wt, 7 days): 29.3 ± 2.6 U/l
Creatinine (normal mice; ART 50 mg/kg body wt, 7 days): 0.71 ± 0.1 mg/dL
Urea (normal mice; ART 50 mg/kg body wt, 7 days): 27.1 ± 1.3 mg/dL
